Reference: patent US20110046058A1, “COMPOSITIONS FOR ENTERAL ABSORPTION AND SUSTAINED ACTION OF LEPTIN-RELATED PEPTIDES USEFUL IN THE TREATMENT OF OBESITY AND LEPTIN-MODULATED DISEASE” (AEGIS THERAPEUTICS LLC, priority 2009, published 2011)
Like-named read-outs stand apart in the source and are kept apart here. Where a SMILES comes first, the peptide text is derived from it.

Experiments:
[1] = NOAEL of alkylsaccharide (FAO/WHO report); conditions: per day, indefinitely
Source text: (§1) Typically, an acceptable daily intake for humans is about 1% of the NOAEL, which translates to about 14-21 grams, or 14 million micrograms to 21 million micrograms, per day, indefinitely.

[2] = FAO/WHO report; cited from earlier work
[3] = in vivo
Source text: as §1

[4] = mouse, in vivo, 1 mg
Procedure: (§2) Six week-old male Swiss Webster mice weighing approximately 30 gm were maintained at a constant temperature (24 C) with lights on from 07:00 to 19:00 h, and allowed food and water ad libitum until used for uptake studies. […] For sc, im, and ip delivery, the peptide was dissolved in sterile phosphate buffered saline (PBS, pH 7.2) at a concentration of 1 mg/200 μL as described previously containing 0.18% tetradecyl-beta-D-maltoside. For oral gavage [D-Leu-4]OB3 was dissolved in 0.3% dodecyl-beta-D-maltoside reconstituted in PBS (pH 7.2) at a concentration of 1 mg/200 μL. At time zero (0), a single 200 μL sc, im, ip or oral dose of mouse [D-Leu-4]OB3 was given to each of six mice per time point. Following peptide administration, the mice were transferred to separate cages for the designated time period.
(§3) Five, 10, 20, 40, 60, or 120 minutes after peptide delivery, the mice were anesthetized with isoflurane (5%) and exsanguinated by cardiac puncture. The blood was collected in sterile nonheparinized plastic centrifuge tubes and allowed to stand at room temperature for 1 h. The clotted blood was rimmed from the walls of the tubes with sterile wooden applicator sticks. Individual serum samples were prepared by centrifugation for 30 min at 2600×g in an Eppendorf™ 5702R, A-4-38 rotor (Eppendorf North America, Westbury, N.Y., USA), and stored frozen until assayed for mouse [D-Leu-4]OB3 content by competitive ELISA.
(§4) The [D-Leu-4]OB3 competitive ELISA assay was carried out as follows. 96-well polystyrene plates (Pierce Biotechnology, Inc., Rockford, Ill., USA) were coated with 100 μL of a 5 ug/ml solution of BSA-conjugated mouse [D-Leu-4]OB3 (QED Bioscience, San Diego, Calif.) in carbonate-bicarbonate buffer (pH 9.4). The coated plates were incubated overnight at 4 C. Unoccupied sites were blocked with 200 μL StartingBlock™ in PBS (Pierce Biotechnology Inc., Rockford, Ill., USA) for 2 h at room temperature. Mouse [D-Leu-4]OB3 standards ranging from 5 to 10,000 ng/ml are prepared in PBS (pH 7.2). In a separate incubation, 100 μL of mouse [D-Leu-4]OB3 primary antibody raised in New Zealand White rabbits (QED Bioscience, San Diego, Calif.) and diluted to 1:5000 in StartingBlock™, or 100 μL of the primary antibody+50 μL of each standard or serum sample are added to 500 μL microcentrifuge tubes and incubated for 1 h at 37 C. At the end of the incubation period, 100 μL of each antibody-bound standard or sample were added to the wells and incubated for 1 h at room temperature. HRP-conjugated goat-anti-rabbit IgG (Pierce Biotechnology Inc, Rockford, Ill., USA) was used as the secondary antibody. 100 μL was added to each well and incubated for 1 h at room temperature. At the end of the incubation period, 100 μL of ABTS substrate (Pierce Biotechnology Inc, Rockford, Ill., USA) was added to each well and incubated for 30 minutes on a rotary rocker. Color development was stopped with 1% SDS. Absorbance was read at 405 nm with a Molecular Devices microplate reader (MDS Sciex, Concord, Ontario Canada). Each sample was assayed in triplicate. […] The relative bioavailability was determined by plotting the serum concentrations of mouse [D-Leu-4]OB3 vs. time following ip, sc, or im delivery using the graphics program SigmaPlot™ 8.0 (SPSS Science, Chicago, Ill., USA). The area under each curve (AUC) was calculated with a function of this program.

[5] = mouse, in vivo
Procedure: (§5) Six week-old male Swiss Webster mice weighing approximately 30 g were obtained from Taconic Farms (Germantown, N.Y., USA). The animals were housed three per cage in polycarbonate cages fitted with stainless steel wire lids and air filters, and supported on ventilated racks (Thoren Caging Systems, Hazelton, Pa., USA) in the Albany Medical College Animal Resources Facility. The mice were maintained at a constant temperature (24° C.) with lights on from 07:00 to 19:00 h, and allowed food and water ad libitum until used for uptake studies.
(§6) Following peptide administration the mice were transferred to separate cages for the designated time period.
(§7) Five, 10, 20, 40, 60, or 120 min after peptide delivery, the mice were anesthetized with isoflurane (5%) and exsanguinated by cardiac puncture. The blood was collected in sterile nonheparinized plastic centrifuge tubes and allowed to stand at room temperature for 1 h. The clotted blood was rimmed from the walls of the tubes with sterile wooden applicator sticks.
(§8) The coated plates were incubated overnight at 4° C. Unoccupied sites were blocked with 200 μL StartingBlock™ in PBS (Pierce Biotechnology Inc., Rockford, Ill., USA) for 2 h at room temperature. […] At the end of the incubation period, 100 μL of each antibody-bound standard or sample was added to the wells and incubated for 1 h at room temperature. HRP-conjugated goat-anti-rabbit IgG (Pierce Biotechnology Inc. Rockford, Ill., USA) was used as the secondary antibody. 100 μL was added to each well and incubated for 1 h at room temperature.

[6] = mouse, in vivo; remark: listed apart in the source
Procedure: as §2, §3, §4

[7] = mouse, in vivo; remark: listed apart in the source
Procedure: as §5, §6, §7, §8

Molecule: sucrose dodecanoate
- acceptable daily intake for humans (about 1% of the NOAEL) [1]: 14-21 grams
- NOAEL [2]: 20-30 grams/kilogram/day
- amount a 70 kilogram person can consume per day without any observable adverse effect [3]: 1400-2100 grams

Molecule: CC(C)C[C@@H](NC(=O)[C@H](CO)NC(=O)[C@H](CS)NC(=O)[C@@H](N)CO)C(=O)N1CCC[C@H]1C(=O)N[C@@H](CCC(N)=O)C(=O)N[C@H](C(N)=O)[C@@H](C)O [mouse [D-Leu-4]OB3] (HELM PEPTIDE1{S.C.S.[dL].P.Q.T.[am]}$$$$V2.0; N-terminus assumed)
- AUC ([4]; im): 24700 ng·h/mL
- AUC ([4]; ip): 17900 ng·h/mL
- AUC ([4]; po): 9320 ng·h/mL
- AUC ([4]; sc): 19700 ng·h/mL
- Cmax ([5]; im, 1 mg): 46600 ng/mL
- Tmax ([5]; im, 1 mg): 5 min
- AUC ([5]; im, 1 mg, AUC): 24700 ng·h/mL
- half-life ([5]; im, 1 mg, t1/2 (serum half-life)): 48.8 min
- AUC ([5]; inhaled or intranasal, 1 mg, AUC1): 15400 ng·h/mL
- AUC ([5]; inhaled or intranasal, 1 mg, AUC2): 56900 ng·h/mL
- half-life ([5]; inhaled or intranasal, t1/2 1): 7 min
- half-life ([5]; inhaled or intranasal, t1/2 1 + t1/2 2 (overall half-life)): 41.1 min
- half-life ([5]; inhaled or intranasal, t1/2 2): 34.1 min
- Cmax ([5]; ip, 1 mg): 22500 ng/mL
- Tmax ([5]; ip, 1 mg): 5 min
- AUC ([5]; ip, 1 mg, AUC): 17900 ng·h/mL
- half-life ([5]; ip, 1 mg, t1/2 (serum half-life)): 30 min
- Cmax ([5]; sc, 1 mg): 35100 ng/mL
- Tmax ([5]; sc, 1 mg): 5 min
- AUC ([5]; sc, 1 mg, AUC): 19700 ng·h/mL
- half-life ([5]; sc, 1 mg, t1/2 (serum half-life)): 35 min
- Relative Oral Bioavailability Compared to Three Injection Modes (% of AUC achieved by each respective injection) [6]: 52.2% of IP AUC
- Relative Oral Bioavailability Compared to Three Injection Modes (% of AUC achieved by each respective injection) ([6]; po): 37.8% of IM AUC
- CL1 [7]: 1.08 mL/min
- CL2 [7]: 0.29 mL/min
- Relative bioavailability [7]: 4.0
- kelim1 [7]: 0.0986 min⁻¹
- kelim2 [7]: 0.0203 min⁻¹
- Relative bioavailability ([7]; im): 1.4
- AUC ([7]; im, 1 mg): 1,481,060 ng/ml/min
- CL (plasma clearance) ([7]; im, 1 mg): 0.68 mL/min
- Vd (apparent volume of distribution) ([7]; im, 1 mg): 29.4 mL
- CL1 + CL2 (overall clearance) ([7]; inhaled or intranasal): 1.37 mL/min
- Vd1 ([7]; inhaled or intranasal): 1.1 mL
- Vd1 + Vd2 (overall volume of distribution) ([7]; inhaled or intranasal): 15.4 mL
- Vd2 ([7]; inhaled or intranasal): 14.3 mL
- Cmax2 ([7]; inhaled or intranasal, 1 mg): 69,069 ng/ml
- Tmax2 ([7]; inhaled or intranasal, 1 mg): 60 min
- tmax1 ([7]; inhaled or intranasal, 1 mg): 10 min
- Relative bioavailability ([7]; ip): 1.0
- AUC ([7]; ip, 1 mg): 1,072,270 ng/ml/min
- CL (plasma clearance) ([7]; ip, 1 mg): 0.93 mL/min
- Vd (apparent volume of distribution) ([7]; ip, 1 mg): 65.5 mL
- Relative bioavailability ([7]; sc): 1.1
- AUC ([7]; sc, 1 mg): 1,182,498 ng/ml/min
- CL (plasma clearance) ([7]; sc, 1 mg): 0.85 mL/min
- Vd (apparent volume of distribution) ([7]; sc, 1 mg): 42.9 mL
- t1/2 (serum half-life) ([7]; sc, 1 mg): 34.0 min
